According to patent US12448632B2, “Guanidine degradation enzyme and methods of use” (Alliance for Sustainable Energy, LLC, priority 2020, dated 2025):

Columns and labels:
Synechococcus 7942 [1] = type: cell-based, Synechococcus elongatus PCC 7942
Description: (§1) Guanidine tolerance and degradation test. For guanidine tolerance test, cyanobacterial strains were grown in 20 mL mBG11 medium supplemented with 0-1 mM guanidine and 50 mM NaHCO3. For guanidine degradation test, cyanobacterial strains were grown in 10 mL mBG11 free of nitrate while supplemented with 50 mM NaHCO3 and 5 mM or 1 mM guanidine chloride, under constant light of 50 μE m^−2 s^−1 on a rotary shaker at 150 rpm and 30° C. Every day, 1 mL of culture was sampled for reading OD730 and then transferred into an Eppendorf tube and centrifuged at 17000×g at room temperature for 2 min. The supernatants were stored at −20° C. for later analysis of guanidine.

GD7942 (+sll1077) = test: Guanidine tolerance test, cell growth; type: cell-based, Synechococcus elongatus PCC 7942
Description: as §1, with “For guanidine tolerance test, cyanobacterial strains were grown in 20 mL mBG11 medium supplemented with 0-1 mM guanidine and 50 mM NaHCO3.” left out

Δsll1077 strain (PB805W) = test: Growth in nitrate-deprived medium with guanidine; type: cell-based, Synechocystis sp. PCC 6803; details: guanidine-supplemented (5 mM) versus nitrogen-deprived conditions
Description: as §1

Synechococcus 7942 [2] = test: Cell growth with urea in culture medium; type: cell-based, Synechococcus elongatus PCC 7942; details: 5 mM urea; nitrate-deprived or nitrate-replete conditions

Row | SMILES | guanidine concentration at which cell growth was already inhibited (Synechococcus 7942 [1]) [mM] | cell growth (GD7942 (+sll1077); 1 mM guanidine in culture medium) | cell growth (GD7942 (+sll1077); 2 mM guanidine in culture medium) | cell growth (Δsll1077 strain (PB805W)) | impact on cell growth (Synechococcus 7942 [2])
1 | N=C(N)N [guanidine] | 0.3 | not apparently repressed | only slightly inhibited | severely inhibited | 
2 | NC(N)=O [urea] |  |  |  |  | did not show any apparent impact on the cell growth
